Data published in paper PMC11784839, “Monoaminergic neurotransmitters are bimodal effectors of tau aggregation” (Science Advances, 2025).

Molecular target: tau (Homo sapiens, UniProt P10636)
Experiment: MCE Phenols Library screening, tau biosensor cell seeding assay (AvZ)
Assay type: cell-based
Settings: for Z repl 1 / Z Repl 2: Z score; for Z repl 1 / raw data 1: replicate 1; for Z Repl 2 / raw data 2: replicate 2; for AvZ (average z score of seeding, SDs from the mean level of seeding): 10 μM phenol in cell cultures, AD brain homogenate preincubated 16 hours, two biological replicates, positive = catalyzes seeding, negative = inhibits
[1] = average Z score of the two replicates, MCE Phenols Library screen
[2] = average Z score of the two replicates, tau seeding
[3] = average puncta of the two replicates
[4] = average Z score of the two replicates, tau biosensor seeding, MCE Phenols Library screen

Sequence of tau (P10636 623-695 limits assumed): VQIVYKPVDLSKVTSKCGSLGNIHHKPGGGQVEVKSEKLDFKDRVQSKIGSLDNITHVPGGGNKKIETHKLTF

SMILES	Z repl 1	Z Repl 2	av Z [1]	raw data 1 (puncta)	raw data 2 (puncta)	AvZ (average z score of seeding, SDs from the mean level of seeding)	av puncta [3]	raw data 1 (raw puncta)	raw data 2 (raw puncta)	av Z (average Z score of two replicates, Phenols Library screen)	av puncta (average of raw data 1 and 2)	av Z [2]	av Z [4]
Cc1cc2c(C(C)C)c(O)c(O)c(C=O)c2c(O)c1-c1c(C)cc2c(C(C)C)c(O)c(O)c(C=O)c2c1O [Gossypol]	-2.171	-0.607	-1.389	287.373	6282.89						3285.13		
COc1cc2c(cc1O)CC[n+]1cc3c(OC)c(OC)ccc3cc1-2.[Cl-] [Jatrorrhizine (chloride)]	0.505	-0.062		32409.6	12098.4						22254	0.221	
COc1cc(/C=C/C(=O)O)cc(O)c1O [5-Hydroxyferulic acid]	-0.814	-1.121		16579.9	790.19	-0.968					8685.03		
O=c1cc(-c2ccc(O)cc2)oc2cccc(O)c12 [4',5-Dihydroxyflavone]	0.443	0.397		31664.4	17008.3						24336.3	0.42	
OC[C@H]1O[C@@H](Oc2cc3c(O)cc(O)cc3[o+]c2-c2cc(O)c(O)c(O)c2)[C@H](O)[C@@H](O)[C@@H]1O.[Cl-] [Delphinidin 3-glucoside (chloride)]	-1.229		-1.2	11598.4	259.098						5928.77		
O=c1c(O[C@@H]2O[C@H](CO)[C@@H](O)[C@H](O)[C@H]2O)c(-c2ccc(O)c(O)c2)oc2cc(O[C@@H]3O[C@H](CO[C@@H]4O[C@H](CO)[C@@H](O)[C@H](O)[C@H]4O)[C@@H](O)[C@H](O)[C@H]3O)cc(O)c12	-0.562	-0.434	-0.498	19599.6	8130.05		13864.9						
O.O=C(O)c1cc(O)c(O)c(O)c1 [Gallic acid (hydrate)]	-1.396	-1.097		9587.18	1053.49	-1.246					5320.33		
COc1cc(C(=O)O[C@H]2[C@@H]3C=CO[C@@H](O[C@@H]4O[C@H](CO)[C@@H](O)[C@H](O)[C@H]4O)[C@@H]3[C@@]3(CO)O[C@@H]23)ccc1O [Picroside II]	-0.222	-0.853	-0.537	23683.5	3659.57		13671.5						
O=C(/C=C/c1ccc(O)cc1)c1ccc(O)cc1O [Isoliquiritigenin]	0.483	0.177		32143.5	14661.5						23402.5	0.33	
COc1cc(C(C)=O)ccc1O [Apocynin]	-1.155	-0.185		12482.9	10795.4	-0.67	11639.1						
O=C(/C=C/c1ccc(O)c(O)c1)OC[C@H]1O[C@@H](OCCc2ccc(O)c(O)c2)[C@H](O)[C@@H](O)[C@@H]1O [Calceolarioside B]	0.11	-0.703	-0.297				16462.2	27671.5	5252.85				
Oc1cc(O)c2c(c1)O[C@@H](c1cc(O)c(O)c(O)c1)[C@H](O)C2 [(-)-Gallocatechin]	-1.316	-0.749	-1.032	10555.6	4767.22						7661.42		
O=C(O)c1cc(O)c(O)c(O)c1 [Gallic acid]	-2.072	-1.182		1468.86	137.18	-1.627					803.018		
COc1ccc(-c2cc(=O)c3c(O)c(OC)c(OC)cc3o2)cc1O [Eupatorin]	0.938	0.779		37615.7	21089.9						29352.8		0.859
O=c1ccc2ccc(O)cc2o1 [Umbelliferone]	-1.269	-0.533	-0.901	11115.4	7074.65						9095.02		
COc1ccc(O)c(C(=O)O)c1 [5-Methoxysalicylic acid]	-0.389	0.66		21680.5	19818.6	0.136					20749.6		
O=c1ccoc2cc(O)ccc12 [7-Hydroxy-4H-chromen-4-one]	-0.015	-0.619	-0.317				16165.1	26174.7	6155.6				
O=C(O)Cc1cccc(O)c1 [3-Hydroxyphenylacetic acid]	0.164	-0.218		28313.1	10440	-0.027					19376.5		
CC(=O)c1ccc(O)cc1C [4?-Hydroxy-2?-methylacetophenone]	0.511	-0.266		32488.1	9927.81	0.123					21207.9		
Cc1c(C)c2c(c(C)c1O)CCC(C)(CCCC(C)CCCC(C)CCCC(C)C)O2 (racemic) [DL-alpha-Tocopherol]	-0.849	-0.142	-0.496	16151.3	11251.7		13701.5						

Further lines, with some results ahead:

Z repl 1	Z Repl 2	av Z [1]	raw data 1 (puncta)	raw data 2 (puncta)	AvZ (average z score of seeding, SDs from the mean level of seeding)	av puncta [3]	raw data 1 (raw puncta)	raw data 2 (raw puncta)	av Z (average Z score of two replicates, Phenols Library screen)	SMILES	av puncta (average of raw data 1 and 2)	av Z [2]	av Z [4]
-0.826	-0.428	-0.627	16428.1	8192.15		12310.1				O=C(/C=C/c1ccc(O)cc1)C1=C(O)C(O)([C@@H]2O[C@H](CO)[C@@H](O)[C@H](O)[C@H]2O)C(O)=C([C@@H]2O[C@H](CO)[C@@H](O)[C@H](O)[C@H]2O)C1=O (some centres unmarked) [Hydroxysafflor yellow A]			
-0.619	-1.142	-0.88	18922.2	573.179						O=c1cc(-c2ccc(O)cc2)oc2cc(O)c(O)c(O)c12 [Scutellarein]	9747.69		
-0.088	-0.968	-0.528	25288.8	2427.91		13858.4				C[C@@H]1O[C@@H](OC[C@H]2O[C@@H](Oc3c(-c4ccc(O)cc4)oc4cc(O)cc(O)c4c3=O)[C@H](O[C@@H]3O[C@@H](C)[C@H](O)[C@@H](O)[C@H]3O)[C@@H](O)[C@@H]2O)[C@H](O)[C@H](O)[C@H]1O [Clitorin]			
-0.297	-0.278	-0.288				16285.7	22779.3	9792.07		O=C(CCc1ccc(O)cc1)c1c(O)cc(O)cc1O[C@@H]1O[C@H](CO)[C@@H](O)[C@H](O)[C@H]1O [Phlorizin]			
-0.244	0.385		23421.7	16873.8	0.07					NCCc1ccc(O)cc1 [Tyramine]	20147.8		
-0.859	0.047	-0.406				14655.6	16039.6	13271.6		OC[C@H]1O[C@@H](Oc2cc(O)ccc2/C=C/c2cc(O)cc(O)c2)[C@H](O)[C@@H](O)[C@@H]1O [Oxyresveratrol 2-O-?-D-glucopyranoside]			
0.796	0.821		35905.3	21531.6						COc1c(CC=C(C)C)c(O)cc2oc(=O)c(-c3ccc(O)cc3O)cc12 [Glycycoumarin]	28718.5		0.808
-0.987	-0.442	-0.715	14500	8042.62		11271.3				O=C1c2ccc(O)cc2OCC1c1ccc(O)cc1 (centres unmarked) [Dihydrodaidzein]			
-0.527	0.435		20023.7	17414.1					-0.046	COc1ccc(CCC(=O)c2ccc(O)cc2)c(OC)c1 [Loureirin A]	18718.9		
-0.369	-0.502	-0.435				14662.2	21923.2	7401.19		COc1cc(CCO[C@@H]2O[C@H](CO[C@@H]3O[C@H](CO)[C@@H](O)[C@H](O)[C@H]3O)[C@@H](OC(=O)/C=C/c3ccc(O)c(O)c3)[C@H](O[C@@H]3O[C@@H](C)[C@H](O)[C@@H](O)[C@H]3O)[C@H]2O)ccc1O [Cistanoside A]			
						16957.6	27554	6361.09		O=c1c(-c2ccc(O)cc2)coc2cc(O)ccc12 [Daidzein]			
-0.042	-0.868	-0.455				14673.6	25849	3498.14		O=c1c(-c2ccc(O)cc2)coc2c([C@@H]3O[C@H](CO[C@@H]4OC[C@@H](O)[C@H](O)[C@H]4O)[C@@H](O)[C@H](O)[C@H]3O)c(O)ccc12 [Puerarin 6''-O-Xyloside]			
